Consider 10 compounds from patent US8722727B2, “Antifungal agents” (Seynix, Inc., priority 2008, dated 2014).

T1 sequence (O13428 1-1897): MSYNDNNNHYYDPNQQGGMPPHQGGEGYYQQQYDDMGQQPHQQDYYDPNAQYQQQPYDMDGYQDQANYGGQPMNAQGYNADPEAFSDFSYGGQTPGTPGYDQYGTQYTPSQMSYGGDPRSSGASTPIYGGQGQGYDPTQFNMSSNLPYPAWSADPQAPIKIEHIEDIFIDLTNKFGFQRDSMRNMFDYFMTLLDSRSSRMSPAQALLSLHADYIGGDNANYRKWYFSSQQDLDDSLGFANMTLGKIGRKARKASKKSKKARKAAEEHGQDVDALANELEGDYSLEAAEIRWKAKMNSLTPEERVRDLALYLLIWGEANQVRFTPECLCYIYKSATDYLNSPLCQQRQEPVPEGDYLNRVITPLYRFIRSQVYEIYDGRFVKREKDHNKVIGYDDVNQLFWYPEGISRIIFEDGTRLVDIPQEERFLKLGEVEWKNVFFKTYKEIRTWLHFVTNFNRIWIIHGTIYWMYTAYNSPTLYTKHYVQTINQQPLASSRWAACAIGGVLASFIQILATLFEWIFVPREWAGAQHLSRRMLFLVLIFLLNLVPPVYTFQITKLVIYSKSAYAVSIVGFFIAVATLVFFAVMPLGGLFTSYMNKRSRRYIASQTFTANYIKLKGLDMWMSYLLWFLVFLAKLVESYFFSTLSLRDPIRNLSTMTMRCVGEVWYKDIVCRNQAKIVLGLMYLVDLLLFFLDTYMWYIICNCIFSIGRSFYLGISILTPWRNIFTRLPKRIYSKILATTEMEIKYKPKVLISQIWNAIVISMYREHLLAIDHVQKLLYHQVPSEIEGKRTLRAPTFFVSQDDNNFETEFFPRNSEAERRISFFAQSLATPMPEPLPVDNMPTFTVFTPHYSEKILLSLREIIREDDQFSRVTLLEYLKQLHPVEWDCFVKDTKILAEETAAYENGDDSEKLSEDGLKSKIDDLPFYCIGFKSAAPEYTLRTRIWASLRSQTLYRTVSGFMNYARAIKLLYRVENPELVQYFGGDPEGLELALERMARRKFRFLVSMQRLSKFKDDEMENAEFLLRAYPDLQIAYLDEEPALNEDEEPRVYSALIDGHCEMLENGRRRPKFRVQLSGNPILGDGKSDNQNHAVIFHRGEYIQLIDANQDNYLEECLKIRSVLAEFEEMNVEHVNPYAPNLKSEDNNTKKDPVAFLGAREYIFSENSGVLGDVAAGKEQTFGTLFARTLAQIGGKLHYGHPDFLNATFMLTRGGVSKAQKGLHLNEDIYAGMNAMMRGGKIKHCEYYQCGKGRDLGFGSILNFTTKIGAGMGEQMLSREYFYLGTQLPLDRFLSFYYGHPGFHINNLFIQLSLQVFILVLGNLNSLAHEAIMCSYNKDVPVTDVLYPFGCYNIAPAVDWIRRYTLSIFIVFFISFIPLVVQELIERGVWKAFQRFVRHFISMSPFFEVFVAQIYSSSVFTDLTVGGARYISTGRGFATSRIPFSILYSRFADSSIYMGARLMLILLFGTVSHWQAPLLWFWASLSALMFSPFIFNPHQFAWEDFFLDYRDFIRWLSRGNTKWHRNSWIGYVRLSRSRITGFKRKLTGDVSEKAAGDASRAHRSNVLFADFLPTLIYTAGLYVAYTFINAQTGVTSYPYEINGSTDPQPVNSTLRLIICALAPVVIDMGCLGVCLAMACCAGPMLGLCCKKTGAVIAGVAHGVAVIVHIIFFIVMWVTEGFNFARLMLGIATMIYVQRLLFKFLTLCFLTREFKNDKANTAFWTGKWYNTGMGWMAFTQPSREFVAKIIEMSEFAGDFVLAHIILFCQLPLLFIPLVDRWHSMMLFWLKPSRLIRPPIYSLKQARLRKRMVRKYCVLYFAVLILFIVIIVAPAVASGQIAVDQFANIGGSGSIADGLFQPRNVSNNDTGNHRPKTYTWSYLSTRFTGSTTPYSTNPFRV
T1 sequence (O42825 1-195 partner limits assumed): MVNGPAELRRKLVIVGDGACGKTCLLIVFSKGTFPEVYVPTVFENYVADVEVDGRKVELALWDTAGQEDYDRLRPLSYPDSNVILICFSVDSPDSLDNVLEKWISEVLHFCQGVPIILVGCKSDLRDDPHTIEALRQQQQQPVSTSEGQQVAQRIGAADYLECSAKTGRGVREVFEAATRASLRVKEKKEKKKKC

The assay has as its target T1, glucan synthase (GS) (Candida albicans, UniProt O13428).
T1 construct: Extraction of GS activity from membranes was performed at a protein concentration of 5 mg/mL in extraction buffer; endogenous in cells; host or cells: Candida albicans MY1055 (membrane fraction, detergent extraction, product entrapment)
The assay is described as follows: Glucan synthase inhibition (polymerization assay, 96-well). It is filed as biochemical. The following applies: glucan synthase prepared from Candida albicans MY1055; 60 min incubation at 22° C.; read-out: Candida Albicans GS IC50 (ng/mL) (converted). On the procedure: The in vitro evaluation of glucan synthase inhibitory activity of compounds was measured in a polymerization assay in 96-well format. Each well contained 100 μL of ^3H-UDPG at 0.5 mM (6000 to 8000 dpm/nmol), 50 mM HEPES pH 7.5 (Sigma), 10% w/v glycerol (Sigma), 1.5 mg/mL bovine serum albumin (Sigma A 9647. Lot 44H0190), 25 mM KF (Fisher), 1 mM EDTA (Gibco ULTRAPURE), 25 μM GTP-γ-S, enzyme sufficient to give 3 to 6 nmoles incorporation during the 60 min incubation at 22° C., and test compound added from wells in 3-fold serial dilutions in 100% DMSO (1 μL/well). The reaction was stopped by the addition of 100 μL of 20% trichloroacetic acid. Plates were chilled for a minimum of 10 min, and precipitated glucan collected by filtration on GF/C plates (Packard UNIFILTER®-96), washed with 5 cycles of water (about 1 mL/well each cycle) using a Packard FILTERMATE HARVESTER. 40 μL/well scintillation fluid (Packard ULTIMA GOLD TM-XR) was added and the sealed plates counted in a WALLAC BETA counter in top-counting mode at an efficiency of approximately 40%.
Stock solutions were stored at 10 mg/mL in DMSO at −20° C. For each new enzyme preparation, the initial titration performed started at 1 mg/mL, which was prepared by making a 10-fold dilution in DMSO (5 μL to 50 μL). 40 μL of this stock was placed in column 12 of a round-bottomed 96-well microtiter plate. 40 μL DMSO was added to columns 1 to 11 in the same row and ten 3-fold serial dilutions performed, by transferring 20 μL from column 12 to column 11 etc., with 4 mixings before each transfer. No test compound was transferred to from column 2 to column 1. Duplicate aliquots of 1 μL of all 12 dilutions were then transferred to the side walls of a 96-well Bioblock 1.1 mL plate (Fisher brand) to create two rows. Graphs of the primary data were created in PRISM software (the average of two determinations) using PRISM's curve fitting program (sigmoidal dose response non-linear regression). The amount of compound required to inhibit glucan synthase activity by 50% in this assay (IC50-ng/mL) was calculated.
Routine analysis was performed with glucan synthase (GS) prepared from Candida albicans MY1055 by the following procedure: MY1055 was grown in 10 liters YPD medium (10 g yeast extract, 20 g tryptone, 20 g glucose per liter) with vigorous shaking at 30° C., to early stationary phase. Cells were harvested by centrifugation, the pellet was washed and frozen at −70° C. until breakage. Thawed pellets were shaken with an equal volume of breakage buffer (50 mM HEPES pH 7.4, 10% glycerol, 1 mM EDTA, 1 mM PMSF, 1 mM DTT) and 4 times their weight of 0.5 mm acid washed glass beads for 2 hours at 4° C. Extent of breakage was assessed visually at 40× magnification. After low speed centrifugation to remove cell debris, the supernatant was centrifuged at 100,000×g for 60 min. to separate membranes plus ribosomes from cytoplasmic components. Membranes were further washed two additional times with breakage buffer using the same centrifugation conditions and finally suspended in breakage buffer at 25 to 30 mg/mL protein (Biorad) for storage at −70° C. Extraction of GS activity from membranes was performed at a protein concentration of 5 mg/mL in extraction buffer (50 mM NaPO4 pH 7.5, 0.1 M KCl, 0.1M Na citrate, 20% glycerol, 5 μM GTP-γ-S, 1 mM DTT, 1 mM PMSF, 3 μg/mL pepstatin) plus 0.25% W1 by gentle mixing at 4° C. for 60 min, followed by centrifugation at 100,000×g for 60 min. After centrifugation, clear supernatant was removed from a pellet consisting of a hard layer usually with small amounts of gelatinous unextracted membranes above it.
Trapping was initiated immediately by 5-fold dilution in trapping buffer (50 mM HEPES pH 7.5, 10 mM KF, 1 mM EDTA, 2 mg/mL BSA) plus 2.5 mM UDPG and 10 μM GTP-γ-S. After incubation at 25° C. for 60 to 90 minutes, glucan was harvested by low speed centrifugation (3,000×g, 10 min). […]
As to `CC(C)N[C@@](C)(CO[C@H]1[C@H](n2nnc(N)n2)C[C@@]23COC[C@]1(C)[C@@H]2CC[C@H]1C3=CC[C@@]2(C)[C@H](C(=O)O)[C@@](C)([C@H](C)C(C)C)CC[C@]12C)C(C)C` [Example 57, (1S,4aR,6aS,7R,8R,10aR,10bR,12aR,14R,15R)-14-(5-amino-2H-tetrazol-2-yl)-15-[[(2R)-2,3-dimethyl-2-[(1-methylethyl)amino]butyl]oxy]-8-[(1R)-1,2-dimethylpropyl]-1,6,6a,7,8,9,10,10a,10b,11,12,12a-dodecahydro-1,6a,8,10a-tetramethyl-4H-1,4a-propano-2H-phenanthro[1,2-c]pyran-7-carboxylic acid], the IC50 was 8.61 nM.
Next, `CC(=O)Nc1nnnn1[C@@H]1C[C@@]23COC[C@](C)([C@@H]2CC[C@H]2C3=CC[C@@]3(C)[C@H](C(=O)O)[C@@](C)([C@H](C)C(C)C)CC[C@]23C)[C@H]1OC[C@](C)(N)C(C)C` [Example 38A, (1S,4aR,6aS,7R,8R,10aR,10bR,12aR,14R,15R)-14-[5-(acetylamino)-1H-tetrazol-1-yl]-15-[[(2R)-2-amino-2,3-dimethylbutyl]oxy]-8-[(1R)-1,2-dimethylpropyl]-1,6,6a,7,8,9,10,10a,10b,11,12,12a-dodecahydro-1,6a,8,10a-tetramethyl-4H-1,4a-propano-2H-phenanthro[1,2-c]pyran-7-carboxylic acid]: 81.8 nM; `CNC1(CO[C@H]2[C@H](n3nnc(N)n3)C[C@@]34COC[C@]2(C)[C@@H]3CC[C@H]2C4=CC[C@@]3(C)[C@H](C(=O)O)[C@@](C)([C@H](C)C(C)C)CC[C@]23C)CCOCC1` [Example 27, (1S,4aR,6aS,7R,8R,10aR,10bR,12aR,14R,15R)-14-(5-amino-2H-tetrazol-2-yl)-8-[(1R)-1,2-dimethylpropyl]-15-[[tetrahydro-4-(methylamino)-2H-pyran-4-yl]methoxy]-1,6,6a,7,8,9,10,10a,10b,11,12,12a-dodecahydro-1,6a,8,10a-tetramethyl-4H-1,4a-propano-2H-phenanthro[1,2-c]pyran-7-carboxylic acid]: 5.86 nM.
Then `CN[C@@](C)(CO[C@H]1[C@H](n2nnc(N)n2)C[C@@]23COC[C@]1(C)[C@@H]2CC[C@H]1C3=CC[C@@]2(C)[C@H](C(=O)O)[C@@](C)([C@H](C)C(C)C)CC[C@]12C)C(C)C` [Example 52, (1S,4aR,6aS,7R,8R,10aR,10bR,12aR,14R,15R)-14-(5-amino-2H-tetrazol-2-yl)-15-[[(2R)-2,3-dimethyl-2-(methylamino)butyl]oxy]-8-[(1R)-1,2-dimethylpropyl]-1,6,6a,7,8,9,10,10a,10b,11,12,12a-dodecahydro-1,6a,8,10a-tetramethyl-4H-1,4a-propano-2H-phenanthro[1,2-c]pyran-7-carboxylic acid], with 2.99 nM; and `CCN(C)C(C)(CCOC)CO[C@H]1[C@H](n2nnc(N)n2)C[C@@]23COC[C@]1(C)[C@@H]2CC[C@H]1C3=CC[C@@]2(C)[C@H](C(=O)O)[C@@](C)([C@H](C)C(C)C)CC[C@]12C` (stereo partly drawn) [Example 127, (1S,4aR,6aS,7R,8R,10aR,10bR,12aR,14R,15R)-14-(5-amino-2H-tetrazol-2-yl)-8-[(1R)-1,2-dimethylpropyl]-15-[2-(ethylmethylamino)-4-methoxy-2-methylbutoxy]-1,6,6a,7,8,9,10,10a,10b,11,12,12a-dodecahydro-1,6a,8,10a-tetramethyl-4H-1,4a-propano-2H-phenanthro[1,2-c]pyran-7-carboxylic acid], with 30.9 nM.
Then `CCN[C@H](CO[C@H]1[C@H](n2nnc(N)n2)C[C@@]23COC[C@]1(C)[C@@H]2CC[C@H]1C3=CC[C@@]2(C)[C@H](C(=O)O)[C@@](C)([C@H](C)C(C)C)CC[C@]12C)C(C)(C)C` [Example 97, (1S,4aR,6aS,7R,8R,10aR,10bR,12aR,14R,15R)-14-(5-amino-2H-tetrazol-2-yl)-15-[[(2S)-2-(ethylamino)-3,3-dimethylbutyl]oxy]-8-[(1R)-1,2-dimethylpropyl]-1,6,6a,7,8,9,10,10a,10b,11,12,12a-dodecahydro-1,6a,8,10a-tetramethyl-4H-1,4a-propano-2H-phenanthro[1,2-c]pyran-7-carboxylic acid], with 13.2 nM; and `CC(C)[C@@H](C)[C@@]1(C)CC[C@]2(C)[C@H]3CC[C@@H]4[C@@]5(COC[C@@]4(C)[C@@H](OC[C@@H](C4CC4)N(C)C)[C@H](n4nnc(N)n4)C5)C3=CC[C@@]2(C)[C@@H]1C(=O)O` [Example 83, (1S,4aR,6aS,7R,8R,10aR,10bR,12aR,14R,15R)-14-(5-amino-2H-tetrazol-2-yl)-15-[(2R)-2-cyclopropyl-2-(dimethylamino)ethoxy]-8-[(1R)-1,2-dimethylpropyl]-1,6,6a,7,8,9,10,10a,10b,11,12,12a-dodecahydro-1,6a,8,10a-tetramethyl-4H-1,4a-propano-2H-phenanthro[1,2-c]pyran-7-carboxylic acid], with 16.5 nM.
On to `CC(C)[C@@H](C)[C@@]1(C)CC[C@]2(C)[C@H]3CC[C@@H]4[C@@]5(COC[C@@]4(C)[C@@H](OCC(C)(N)C(C)C)[C@H](n4cnnn4)C5)C3=CC[C@@]2(C)[C@@H]1C(=O)O` (stereo partly drawn) [Example 2A, (1S,4aR,6aS,7R,8R,10aR,10bR,12aR,14R,15R)-15-(2-amino-2,3-dimethylbutoxy)-8-[(1R)-1,2-dimethylpropyl]-14-(1H-tetrazol-1-yl)-1,6,6a,7,8,9,10,10a,10b,11,12,12a-dodecahydro-1,6a,8,10a-tetramethyl-4H-1,4a-propano-2H-phenanthro[1,2-c]pyran-7-carboxylic acid], for which the IC50 was 82.8 nM.
As for `CCNC(C)(COC1C(n2ncnn2)CC23COCC1(C)C2CCC1C3=CCC2(C)C(C(=O)O)C(C)(C(C)C(C)C)CCC12C)C(C)C` [Example 109, (1S,4aR,6aS,7R,8R,10aR,10bR,12aR,14R,15R)-8-[(1R)-1,2-dimethylpropyl]-15-[[(25)-2-(ethylamino)-2,3-dimethylbutyl]oxy]-14-(2H-tetrazol-2-yl)-1,6,6a,7,8,9,10,10a,10b,11,12,12a-dodecahydro-1,6a,8,10a-tetramethyl-4H-1,4a-propano-2H-phenanthro[1,2-c]pyran-7-carboxylic acid], the IC50 is 46.4 nM.
Then `CC(C)[C@@H](C)[C@@]1(C)CC[C@]2(C)[C@H]3CC[C@@H]4[C@@]5(COC[C@@]4(C)[C@@H](OCCN(C)C)[C@H](n4nnc(N)n4)C5)C3=CC[C@@]2(C)[C@@H]1C(=O)O` [Example 114, (1S,4aR,6aS,7R,8R,10aR,10bR,12aR,14R,15R)-14-(5-amino-2H-tetrazol-2-yl)-15-[2-(dimethylamino)ethoxy]-8-[(1R)-1,2-dimethylpropyl]-1,6,6a,7,8,9,10,10a,10b,11,12,12a-dodecahydro-1,6a,8,10a-tetramethyl-4H-1,4a-propano-2H-phenanthro[1,2-c]pyran-7-carboxylic acid], with 19.1 nM.
